Laboratory results published in patent US20230011571A1, “SMALL MOLECULE FURIN INHIBITORS FOR TREATING INFECTIOUS DISEASES” (BP Asset V, Inc., priority 2019, published 2023).

Experiments:
Assay type in all cases: cell-based
Marburg virus (MARV) = assay: organism not typed; conditions: for inhibition at 1 µM: Vero, 72 h, read-out: Percent viral inhibition MARV
dengue virus (DENV) = assay: microbe, parasite or virus in culture; conditions: for inhibition at 1 µM: Dengue virus, Vero, 120 h, read-out: Percent viral inhibition DENY
[1] = tested on: Chikungunya virus (CHIKV); assay: microbe, parasite or virus in culture; conditions: for inhibition at 1 µM: Chikungunya virus, Vero, 48 h, read-out: Percent viral inhibition CHKV

| Compound | inhibition at 1 µM (Marburg virus (MARV)) [%] | inhibition at 1 µM (dengue virus (DENV)) [%] | inhibition at 1 µM [1] [%] | Percent viral inhibition MARV (Marburg virus (MARV); 1 µM) [%] | Percent viral inhibition DENY (dengue virus (DENV); 1 µM) [%] | Percent viral inhibition CHKV ([1]; 1 µM) [%] |
| --- | --- | --- | --- | --- | --- | --- |
| CNC(=O)OCC1CCN(Cc2cc(Oc3cnc(N4CCN(CCCS(C)(=O)=O)CC4)nc3)nc(-c3cc(Cl)cc(Cl)c3)c2)CC1 [Example 210, (1-((2-(3,5-dichlorophenyl)-6-((2-(4-(3-(methylsulfonyl)propyl)piperazin-1-yl)pyrimidin-5-yl)oxy)pyridin-4-yl)methyl)piperidin-4-yl)methylmethylcarbamate] | 32.6 | 21 | 3.75 |  |  |  |
| C[C@@H](CC1CCN(Cc2cc(Oc3cnc(N4CCN(C)CC4)nc3)nc(-c3cc(Cl)cc(Cl)c3)c2)CC1)C(=O)O [Example 134, (S)-3-(1-((2-(3,5-dichlorophenyl)-6-((2-(4-methylpiperazin-1-yl)pyrimidin-5-yl)oxy)pyridin-4-yl)methyl)piperidin-4-yl)-2-methylpropanoic acid] | 45.1 | 43.2 | 0 |  |  |  |
| CN1CCN(c2ccc(Oc3cc(CN4CCC(CCO)CC4)cc(-c4cc(Cl)cc(Cl)c4)n3)nn2)CC1 [Example 360, 2-(1-((2-(3,5-dichlorophenyl)-6-((6-(4-methylpiperazin-1-yl)pyridazin-3-yl)oxy)pyridin-4-yl)methyl)piperidin-4-yl)ethanol] | 3.44 | 2.83 | 0 |  |  |  |
| CN1CCN(c2cnc(Oc3cc(CN4CCC(OC5(C(=O)O)CC5)CC4)cc(-c4cc(Cl)cc(Cl)c4)n3)cn2)CC1 [Example 353, 1-((1-((2-(3,5-dichlorophenyl)-6-((5-(4-methylpiperazin-1-yl)pyrazin-2-yl)oxy)pyridin-4-yl)methyl)piperidin-4-yl)oxy)cyclopropanecarboxylic acid] | 35.4 | 51.3 | 16.6 |  |  |  |
| CNC(=O)OCC1CCN(Cc2cc(Oc3cnc(N4CCN(CCC(=O)O)CC4)nc3)nc(-c3cc(Cl)cc(Cl)c3)c2)CC1 [Example 248, 3-(4-(5-((6-(3,5-dichlorophenyl)-4-((4-(((methylcarbamoyl)oxy)methyl)piperidin-1-yl)methyl)pyridin-2-yl)oxy)pyrimidin-2-yl)piperazin-1-yl) propanoic acid] | 49.6 | 81.2 | 34.8 |  |  |  |
| CCN1CCCN(c2cnc(Oc3cc(CN4CCC(CC(=O)O)CC4)cc(-c4cc(Cl)cc(Cl)c4)n3)cn2)CC1 [Example 345, 2-(1-((2-(3,5-dichlorophenyl)-6-((5-(4-ethyl-1,4-diazepan-1-yl)pyrazin-2-yl)oxy)pyridin-4-yl)methyl)piperidin-4-yl)acetic acid] | 57 | 44 | 22.1 |  |  |  |
| CC(CCN1CCN(c2ncc(Oc3cc(CN4CCC(CCO)CC4)cc(-c4cc(Cl)cc(Cl)c4)n3)cn2)CC1)C(=O)O (stereo not drawn) [Example 57, 4-(4-(5-((6-(3,5-dichlorophenyl)-4-((4-(2-hydroxyethyl)piperidin-1-yl)methyl)pyridin-2-yl)oxy)pyrimidin-2-yl)piperazin-1-yl)-2-methylbutanoic acid] | 54.4 | 37.6 | 21.1 |  |  |  |
| CNC(=O)NCC1CCN(Cc2cc(Oc3cnc(N4CCN(CCC(C)[S+](C)[O-])CC4)nc3)nc(-c3cc(Cl)cc(Cl)c3)c2)CC1 (stereo not drawn) [Example 17, 1-((1-((2-(3,5-chlorophenyl)-6-((2-(4-(3-(methylsulfinyl)butyl)piperazin-1-yl)pyrimidin-5-yl)oxy)pyridin-4-yl)methyl)piperidin-4-yl)methyl)-3-methylurea] | 52.9 | 57.4 | 7.16 |  |  |  |
| CN1CCN(c2ncc(Oc3cc(CN4CCC(CC(=O)O)CC4)cc(-c4cc(Cl)cc(Cl)c4)n3)cn2)CC1 [Example 207, 2-(1-((2-(3,5-dichlorophenyl)-6-((2-(4-methylpiperazin-1-yl)pyrimidin-5-yl)oxy)pyridin-4-yl)methyl)piperidin-4-yl)acetic acid] | 42.2 | 47.9 | 26.3 |  |  |  |
| CC(CC1CCN(Cc2cc(Oc3cnc(N4CCN(C)CC4)nc3)nc(-c3cc(Cl)cc(Cl)c3)c2)CC1)C(=O)O (stereo not drawn) [Example 131, 3-(1-((2-(3,5-dichlorophenyl)-6-((2-(4-methylpiperazin-1-yl)pyrimidin-5-yl)oxy)pyridin-4-yl)methyl)piperidin-4-yl)-2-methylpropanoic acid] | 52.4 | 20.7 | 3.11 |  |  |  |
| CC(O)CCN1CCN(c2ncc(Oc3cc(CN4CCC(F)CC4)cc(-c4cc(Cl)cc(Cl)c4)n3)cn2)CC1 (stereo not drawn) [Example 60, 4-(4-(5-((6-(3,5-dichlorophenyl)-4-((4-fluoropiperidin-1-yl)methyl)pyridin-2-yl)oxy)pyrimidin-2-yl)piperazin-1-yl)butan-2-ol] | 53.6 | 79 | 38.8 |  |  |  |
| CC(O)CCN1CCN(c2cnc(Oc3cc(CN4CCC(CC(=O)O)CC4)cc(-c4cc(Cl)cc(Cl)c4)n3)cn2)CC1 (stereo not drawn) [Example 349, 2-(1-((2-(3,5-dichlorophenyl)-6-((5-(4-(3-hydroxybutyl)piperazin-1-yl)pyrazin-2-yl)oxy)pyridin-4-yl)methyl)piperidin-4-yl)acetic acid] | 64.5 | 57.6 | 26.2 |  |  |  |
| O=C(O)CC1CCN(Cc2cc(Oc3cnc(N4CCN(C5CC5)CC4)nc3)nc(-c3cc(Cl)cc(Cl)c3)c2)CC1 [Example 233, 2-(1-((2-((2-(4-cyclopropylpiperazin-1-yl)pyrimidin-5-yl)oxy)-6-(3,5-dichlorophenyl)pyridin-4-yl)methyl)piperidin-4-yl)acetic acid] | 57.1 | 55.7 | 16.3 |  |  |  |
| CC(=O)NCC1CCN(Cc2cc(Oc3ccc(N4CCN(CCS(N)(=O)=O)CC4)nc3)nc(-c3cc(Cl)cc(Cl)c3)c2)CC1 [Example 289, N-((1-((2-(3,5-dichlorophenyl)-6-((6-(4-(2-sulfamoylethyl)piperazin-1-yl)pyridin-3-yl)oxy)pyridin-4-yl)methyl)piperidin-4-yl)methyl)acetamide] |  |  |  | 40.64 | 43.48 | 28.95 |
| CC(C)(O)CN1CCN(c2cnc(Oc3cc(CN4CCC(CC(=O)O)CC4)cc(-c4cc(Cl)cc(Cl)c4)n3)cn2)CC1 [Example 343, 2-(1-((2-(3,5-dichlorophenyl)-6-((5-(4-(2-hydroxy-2-methylpropyl)piperazin-1-yl)pyrazin-2-yl)oxy)pyridin-4-yl)methyl)piperidin-4-yl)acetic acid] | 51 | 28.6 | 35.7 |  |  |  |
| CC(=O)NCC1CCN(Cc2cc(Oc3ccc(N4CCN(CCc5nnn[nH]5)CC4)nc3)nc(-c3cc(Cl)cc(Cl)c3)c2)CC1 [Example 14] | 17.3 | 0 | 3.02 |  |  |  |
| CN1CCN(c2cnc(Oc3cc(CN4CCC(CC(=O)O)CC4)cc(-c4cc(Cl)cc(Cl)c4)n3)cn2)CC1 [Example 339, 2-(1-((2-(3,5-dichlorophenyl)-6-((5-(4-methylpiperazin-1-yl)pyrazin-2-yl)oxy)pyridin-4-yl)methyl)piperidin-4-yl)acetic acid] | 52.1 | 0 | 23.6 |  |  |  |
| CC(=O)NCC1CCN(Cc2cc(Oc3ccc(N4CCN(C(C)CCS(C)(=O)=O)CC4)nc3)nc(-c3cc(Cl)cc(Cl)c3)c2)CC1 (stereo not drawn) [Example 16] | 28.6 | 41.7 | 4.14 |  |  |  |
| CC(=O)NCC1CCN(Cc2cc(Oc3cnc(N4CCN(CCC(N)=O)CC4)nc3)cc(-c3cc(Cl)cc(Cl)c3)c2)CC1 [Example 170, 3-(4-(5-((5-((4-(acetamidomethyl)piperidin-1-yl)methyl)-3′,5′-dichloro-[1,1′-biphenyl]-3-yl)oxy)pyrimidin-2-yl)piperazin-1-yl)propanamide] | 10.3 | 57.6 | 7.29 |  |  |  |
| CCNC(=O)CC1CCN(Cc2cc(Oc3ccc(N4CCN(CCCS(C)(=O)=O)CC4)nc3)nc(-c3cc(Cl)cc(Cl)c3)c2)CC1 [Example 36, 2-(1-((2-(3,5-dichlorophenyl)-6-((6-(4-(3-(methylsulfonyl)propyl)piperazin-1-yl)pyridin-3-yl)oxy)pyridin-4-yl)methyl)piperidin-4-yl)-N-ethylacetamide] | 52.5 | 38 | 5.78 |  |  |  |
| CC(O)CC1CCN(Cc2cc(Oc3cnc(N4CCN(C)CC4)nc3)nc(-c3cc(Cl)cc(Cl)c3)c2)CC1 (stereo not drawn) [Example 138, 1-(1-((2-(3,5-dichlorophenyl)-6-((2-(4-methylpiperazin-1-yl)pyrimidin-5-yl)oxy)pyridin-4-yl)methyl)piperidin-4-yl)propan-2-ol] | 32.4 | 54.9 | 21.7 |  |  |  |
| O=C(O)CC1CCN(Cc2cc(Oc3cnc(N4CC5CCC(C4)N5)nc3)nc(-c3cc(Cl)cc(Cl)c3)c2)CC1 [Example 163, 2-(1-((2-((2-(3,8-diazabicyclo[3.2.1]octan-3-yl)pyrimidin-5-yl)oxy)-6-(3,5-dichlorophenyl)pyridin-4-yl)methyl)piperidin-4-yl)acetic acid] | 34.4 | 32.5 | 22 |  |  |  |
| CC(=O)NCC1CCN(Cc2cc(Oc3cnc(N4CCN(C[C@@H](C)O)CC4)nc3)nc(-c3cc(Cl)cc(Cl)c3)c2)CC1 [Example 302, (R)-N-((1-((2-(3,5-dichlorophenyl)-6-((2-(4-(2-hydroxypropyl)piperazin-1-yl)pyrimidin-5-yl)oxy)pyridin-4-yl)methyl)piperidin-4-yl)methyl)acetamide] | 56.9 | 26.6 | 39 |  |  |  |
